Assay results: US8889591B2, “Herbicidal compositions comprising 4-amino-3-chloro-5-fluoro-6-(4-chloro-2-fluoro-3-methoxyphenyl)pyridine-2-carboxylic acid or a derivative thereof and bromobutide, daimuron, oxaziclomefone or pyributicarb” (Dow Agrosciences LLC, priority 2012, dated 2014)

How the values were obtained:
[1] = tested on: CYPRO; test: In-water applied greenhouse weed control, transplanted paddy rice system; format: in vivo, Cyperus rotundus L.; conditions: in-water application
Description: (§1) Weed seeds or nutlets of the desired test plant species were planted in puddled soil (mud) prepared by mixing a shredded, non-sterilized mineral soil (50.5 percent silt, 25.5 percent clay, and 24 percent sand, with a pH of about 7.6 and an organic matter content of about 2.9 percent) and water at a 1:1 volumetric ratio. The prepared mud was dispensed in 365 mL aliquots into 16-ounce (oz.) non-perforated plastic pots with a surface area of 86.59 square centimeters (cm^2) leaving a headspace of 3 centimeters (cm) in each pot. Mud was allowed to dry overnight prior to planting or transplanting. Rice seeds were planted in Sun Gro MetroMix® 306 planting mixture, which typically has a pH of 6.0 to 6.8 and an organic matter content of about 30 percent, in plastic plug trays. Seedlings at the second or third leaf stage of growth were transplanted into 840 mL of mud contained in 32-oz. non-perforated plastic pots with a surface area of 86.59 cm^2 4 days prior to herbicide application. The paddy was created by filling the headspace of the pots with 2.5 to 3 cm of water. When required to ensure good germination and healthy plants, a fungicide treatment and/or other chemical or physical treatment was applied. The plants were grown for 4-22 days in a greenhouse with an approximate 14 h photoperiod which was maintained at about 29° C. during the day and 26° C. during the night. Nutrients were added as Osmocote® (19:6:12, N:P:K+ minor nutrients) at 2 g per 16-oz. pot and 4 g per 32-oz. pot. Water was added on a regular basis to maintain the paddy flood, and supplemental lighting was provided with overhead metal halide 1000-Watt lamps as necessary. The plants were employed for testing when they reached the first through fourth true leaf stage.
(§2) Treatments consisted of the acid or esters of 4-amino-3-chloro-5-fluoro-6-(4-chloro-2-fluoro-3-methoxy-phenyl)pyridine-2-carboxylic acid (compound A) each formulated as an SC and various herbicidal components alone and in combination. Forms of compound A were applied on an acid equivalent basis.
(§3) Other herbicidal components were applied on an active ingredient basis and included daimuron formulated as an EC, bromobutide (technical grade material), and oxaziclomefone (technical grade material).
(§4) Treatment requirements for each compound or herbicidal component were calculated based upon the rates being tested, the concentration of active ingredient or acid equivalent in the formulation, an application volume of 2 mL per component per pot, and an application area of 86.59 cm^2 per pot.
(§5) For formulated compounds, a measured amount was placed in an individual 100 or 200 mL glass vial and was dissolved in a volume of 1.25% (v/v) Agri-Dex® crop oil concentrate to obtain application solutions.
(§6) For technical grade compounds, a weighed amount was placed in an individual 100 to 200 mL glass vial and was dissolved in a volume of acetone to obtain concentrated stock solutions. […] The concentrated stock solutions obtained were diluted with an equivalent volume of an aqueous mixture containing 2.5% (v/v) crop oil concentrate so that the final application solutions contained 1.25% (v/v) crop oil concentrate.
(§7) Applications were made by injecting, with a pipetter, appropriate amounts of the application solutions, individually and sequentially, into the aqueous layer of the paddy. Control plants were treated in the same manner with the solvent blank. Applications were made so that all treated plant material received the same concentrations of acetone and crop oil concentrate.
(§8) The treated plants and control plants were placed in a greenhouse as described above and water was added as needed to maintain a paddy flood. After approximately 3 weeks the condition of the test plants as compared with that of the untreated plants was determined visually and scored on a scale of 0 to 100 percent where 0 corresponds to no injury or growth inhibition and 100 corresponds to complete kill. […]

[2] = tested on: FIMMI; test: as above; format: in vivo, Fimbristylis miliacea (L.) Vahl; conditions: in-water application
Description: as §1, §2, §3, §4, §5, §6, §7, §8

[3] = tested on: ECHCO; test: Postemergence foliar-applied greenhouse weed control, direct-seeded rice system; format: in vivo, Echinochloa colona (L.) Link
Source text: (§9) Seeds or nutlets of the desired test plant species were planted in a soil matrix prepared by mixing a loam or sandy loam soil (e.g., 28.6 percent silt, 18.8 percent clay, and 52.6 percent sand, with a pH of about 5.8 and an organic matter content of about 1.8 percent) and calcareous grit in an 80 to 20 ratio. The soil matrix was contained in plastic pots with a volume of 1 quart and a surface area of 83.6 square centimeters (cm^2). When required to ensure good germination and healthy plants, a fungicide treatment and/or other chemical or physical treatment was applied. The plants were grown for 8-22 days in a greenhouse with an approximate 14 h photoperiod which was maintained at about 29° C. during the day and 26° C. during the night. Nutrients (Peters Excel® 15-5-15 5-Ca 2-Mg and iron chelate) were applied in the irrigation solution as needed and water was added on a regular basis. Supplemental lighting was provided with overhead metal halide 1000-Watt lamps as necessary. The plants were employed for testing when they reached the first through fourth true leaf stage.
as §2, with “(Compound A),” for “(compound A)”, “SC (suspension concentrate),” for “SC”
(§10) Other herbicidal components were applied on an active ingredient basis and included diamuron formulated as an EC (emulsifiable concentrate) and oxaziclomefone (technical grade material).
(§11) Treatment requirements were calculated based upon the rates being tested, the concentration of active ingredient or acid equivalent in the formulation, and a 12 mL application volume at a rate of 187 L/ha.
(§12) For treatments comprised of formulated compounds, measured amounts of compounds were placed individually in 25 mL glass vials and diluted in a volume of 1.25% (v/v) Agri-Dex® crop oil concentrated to obtain 12× stock solutions. […] Application solutions were prepared by adding an appropriate amount of each stock solution (e.g., 1 mL) and diluted to the appropriate final concentrations with the addition of 10 mL of an aqueous mixture of 1.25% (v/v) crop oil concentrate so that the final spray solutions contained 1.25+/−0.05% (v/v) crop oil concentrate.
(§13) For treatments comprised of technical compounds, weighed amounts can be placed individually in 25 mL glass vials and dissolved in a volume of 97:3 v/v acetone/DMSO to obtain 12× stock solutions. […] Application solutions can be prepared by adding an appropriate amount of each stock solution (e.g., 1 mL) and diluted to the appropriate final concentrations with the addition of 10 mL of an aqueous mixture of 1.5% (v/v) crop oil concentrate so that the final spray solutions contain 1.25% (v/v) crop oil concentrate. When technical materials are used, the concentrated stock solutions can be added to the spray solutions so that the final acetone and DMSO concentrations of the application solutions are 16.2% and 0.5%, respectively.
(§14) For treatments comprised of formulated and technical compounds, weighed amounts of the technical materials were placed individually in 25 mL glass vials and dissolved in a volume of 97:3 v/v acetone/DMSO to obtain 12× stock solutions, and measured amounts of the formulated compounds were placed individually in 25 mL glass vials and diluted in a volume of 1.5% (v/v) crop oil concentrate or water to obtain 12× stock solutions. […] Application solutions were prepared by adding an appropriate amount of each stock solution (e.g., 1 mL) and diluted to the appropriate final concentrations with the addition of an appropriate amount of an aqueous mixture of 1.5% (v/v) crop oil concentrate so that the final spray solutions contained 1.25% (v/v) crop oil concentrate. […]

[4] = tested on: ECHOR; test: In-water applied greenhouse weed control, transplanted paddy rice system; format: in vivo, Echinochloa oryzoides (Ard.) Fritsch; conditions: in-water application
Description: as §1, §2, §3, §4, §5, §6, §7, §8

[5] = tested on: BRAPP; test: Postemergence foliar-applied greenhouse weed control, direct-seeded rice system; format: in vivo; conditions: Compound A Acid 4.38 gae/ha alone
Source text: as §9
as §2, with “(Compound A),” for “(compound A)”, “SC (suspension concentrate),” for “SC”
as §10, §11, §12, §13, §14

[6] = tested on: LEFCH; test: as above; format: in vivo, Leptochloa chinensis (L.) Nees
Source text: as §9
as §2, with “(Compound A),” for “(compound A)”, “SC (suspension concentrate),” for “SC”
as §10, §11, §12, §13, §14

[7] = tested on: ECHCG; test: as above; format: in vivo, Echinochloa crusgalli (L.) Beauv.
Source text: as §9
as §2, with “(Compound A),” for “(compound A)”, “SC (suspension concentrate),” for “SC”
as §10, §11, §12, §13, §14

[8] = tested on: IPOHE; test: as above; format: in vivo, Ipomoea hederacea Jacq.
Source text: as §9
as §2, with “(Compound A),” for “(compound A)”, “SC (suspension concentrate),” for “SC”
as §10, §11, §12, §13, §14

[9] = Compound A Acid 4.38 gae/ha alone
[10] = Compound A Acid 8.75 gae/ha alone
[11] = Compound A Acid 17.5 gae/ha alone
[12] = Compound A Acid 35 gae/ha alone

CC(C)(NC(=O)C(Br)C(C)(C)C)c1ccccc1 (centres unmarked) [Bromobutide, 2-bromo-3,3-dimethyl-N-(1-methyl-1-phenylethyl)butanamide]
Visual Weed Control (%) - 19 DAA CYPRO Obs ([1]; Bromobutide 225 gai/ha alone): 0% | Visual Weed Control (%) - 19 DAA CYPRO Obs ([1]; Bromobutide 450 gai/ha alone): 0% | Visual Weed Control (%) - 19 DAA FIMMI Obs ([2]; Bromobutide 225 gai/ha alone): 0% | Visual Weed Control (%) - 19 DAA FIMMI Obs ([2]; Bromobutide 450 gai/ha alone): 15%

COc1c(Cl)ccc(-c2nc(C(=O)O)c(Cl)c(N)c2F)c1F [Compound A Acid, 4-amino-3-chloro-6-(4-chloro-2-fluoro-3-methoxyphenyl)-5-fluoropyridine-2-carboxylic acid]
Visual Weed Control (%) - 20 DAA ECHCO Obs [3, 9]: 50% | Visual Weed Control (%) - 20 DAA ECHCO Obs [3, 10]: 75% | Visual Weed Control (%) - 20 DAA ECHCO Obs [3, 11]: 90% | Visual Weed Control (%) - 21 DAA CYPRO Obs [1, 11]: 40% | Visual Weed Control (%) - 21 DAA CYPRO Obs [1, 12]: 70% | Visual Weed Control (%) - 20 DAA ECHOR Obs [4, 10]: 20% | Visual Weed Control (%) - 20 DAA ECHOR Obs [4, 11]: 30% | Visual Weed Control (%) - 20 DAA ECHOR Obs [4, 12]: 40% | Visual Weed Control (%) - 20 DAA BRAPP Obs [5]: 10% | Visual Weed Control (%) - 20 DAA LEFCH Obs [6, 9]: 0% | Visual Weed Control (%) - 20 DAA LEFCH Obs [6, 10]: 20% | Visual Weed Control (%) - 20 DAA LEFCH Obs [6, 11]: 50% | Visual Weed Control (%) - 20 DAA ECHCG Obs [7, 9]: 25% | Visual Weed Control (%) - 20 DAA ECHCG Obs [7, 10]: 80% | Visual Weed Control (%) - 20 DAA IPOHE Obs [8, 9]: 10% | Visual Weed Control (%) - 20 DAA IPOHE Obs [8, 10]: 35%
